Data from US9872495B2, “Peptoid oligomers, pharmaceutical compositions and methods of using the same” (priority 2009, dated 2018).
Converted amounts (≈) assume the structure as drawn. Where two headings read alike, the source gives them in different places. Numbered stars: 1 amine (or outer) side, 2 acyl side, 3 side chain; on linkers, the order of the positions; unused ones are H or OH. Square brackets hold non-standard residues; d marks the D form. Peptide text beside a SMILES is read from it. X1 = O=C(CN(CC(c1ccccc1)c1ccccc1)[*:1])[*:2]; Gly(N(CH2)3NH2) = NCCCNCC(=O)O; NhArg = N=C(N)NCCCCNCC(=O)O; N(iPr)Gly = CC(C)NCC(=O)O; Nphe = O=C(O)CNCc1ccccc1; Nleu = CC(C)CNCC(=O)O; Nlys = NCCCCNCC(=O)O

Assays:
[1] = system: Bacillus subtilis ATCC 6633; assay type: cell-based
Description: (§1) Antimicrobial activity was tested against the gram-negative strain Escherichia coli ATCC 25922, and […] strains Staphylococcus aureus ATCC 25923, and Bacillus subtilis ATCC 6633, according to the guidelines given in the document […]-A7 of the CLSI (Clinical and Laboratory Standards Institute; Clinical and Laboratory Standards Institute. Methods for Dilution Antimicrobial Susceptibility Tests for Bacteria That Grow Aerobically-Seventh Edition: Approved Standard CLSI document […]-A7. CLSI, Wayne, USA, 2006). This reference is incorporated herein in its entirety. Hemolytic activity was tested against fresh human erythrocytes.

[2] = system: Escherichia coli ATCC 25922; assay type: cell-based
Description: as §1

[3] = system: Staphylococcus aureus ATCC 25923; assay type: cell-based
Description: as §1

[4] = system: fresh human erythrocytes; assay: Hemolytic activity; assay type: cell-based
Description: Typically, toxicity is evaluated by hemolytic concentration50 (HC50), which measures the concentration of antimicrobial agents at which 50% of the erythrocytes in the culture are lysed. Significant hemolysis, as evaluated by HC50, was detectable only for peptide gramicidin S (40 μg/mL). […] In order to test hemolytic activity of peptoid oligomers further, more stringent parameters were used. Instead of HC50, hemolytic concentration10 (HC10) was used to evaluate hemolytic activity of peptoids used in this study. HC10 represents the concentration of antimicrobial agents where 10% of erythrocytes are lysed. HC10 values were detectable for only four peptoid oligomers. […] Antimicrobial activity was tested against the gram-negative strain Escherichia coli ATCC 25922, and […] strains Staphylococcus aureus ATCC 25923, and Bacillus subtilis ATCC 6633, according to the guidelines given in the document […]-A7 of the CLSI (Clinical and Laboratory Standards Institute; Clinical and Laboratory Standards Institute. Methods for Dilution Antimicrobial Susceptibility Tests for Bacteria That Grow Aerobically-Seventh Edition: Approved Standard CLSI document […]-A7. CLSI, Wayne, USA, 2006). This reference is incorporated herein in its entirety. Hemolytic activity was tested against fresh human erythrocytes.

[5] = system: MSSA (methicillin-sensitive) and MRSA (methicillin-resistant) S. aureus strains; assay type: cell-based, Staphylococcus aureus
Description: Experimental Design: • Twelve strains of MSSA (methicillin-sensitive) and MRSA (methicillin-resistant) S. aureus were cross-tested against two antibacterial peptoid oligomers.
[drawing 50] • Testing was accomplished with 96-well plates wherein each well contained LB media, the S. aureus strain, and a solution of the compound in ethanol at a specific concentration. • A twofold serial dilution of each compound was accomplished with pure ethanol starting from 0.5 mg/mL to 0.0039 mg/mL. • To determine the appropriate concentration of the bacterial strain for each well, the previously grown (overnight in LB media) cultures were diluted with LB media until the optical density at 595 nm (OD595˜OD600) was ˜0.005. • Each experiment was conducted in triplicate, e.g. testing of “Newman” S. aureus strain against a specific concentration of C(NapNdp)3 was replicated in three wells. • Control experiments were also conducted in absence of the compound, i.e. the plates contained only the bacterial strain, LB media, and ethanol. • The plates were incubated and gently shaken overnight (20 hours) at 37° C., and OD595 was read before (t=0) and after (t=20) incubation.
Specifically, along a dilution sequence, the well with the least OD595 after subtraction was determined to be the MIC.

| Compound | MIC B. sub ([1]; ATCC 6633) | MIC E. coli ([2]; ATCC 25922) | MIC S. aureus ([3]; ATCC 25923) | HC10 (concentration where 10% hemolysis is observed) ([4]; red cells of human) | HC50 (concentration where 50% hemolysis is observed) ([4]; red cells of human) | activity across strains of Staphylococcus aureus (in words) ([5]; clinical, community-acquired, and hospital strains, methicillin-sensitive and methicillin-resistant) | MIC against Staphylococcus aureus strain ([5]; methicillin-sensitive) and (methicillin-resistant) strains) | MIC B. sub ([1]; B. subtilis ATCC 6633) | MIC E. coli ([2]; E. coli ATCC 25922) | MIC S. aureus ([3]; S. aureus ATCC 25923) | HC10 (concentration where 10% hemolysis is observed) ([4]; fresh human erythrocytes) | HC50 (concentration where 50% hemolysis is observed) ([4]; fresh human erythrocytes) |
| --- | --- | --- | --- | --- | --- | --- | --- | --- | --- | --- | --- | --- |
| CC(=O)N(CCCN)CC(=O)N(CC(=O)N(CCCN)CC(=O)N(CC(=O)N(CCCN)CC(=O)N(CC(N)=O)CC(c1ccccc1)c1ccccc1)CC(c1ccccc1)c1ccccc1)CC(c1ccccc1)c1ccccc1 [Compound 4, Ac(NapNdp)3] | 1 µg/mL (≈ 0.898 µM) | 15.6 µg/mL (≈ 14 µM) | 15.6 µg/mL (≈ 14 µM) | >62.5 µg/mL | >250 µg/mL | active | 15.6 µg/mL (≈ 14 µM) | – | – | – | – | – |
| CC(C)CN1CC(=O)N(Cc2ccccc2)CC(=O)N2CCC[C@H]2C(=O)N(C(C)C)CC(=O)N(CCCN)CC(=O)N(CC(C)C)CC(=O)N(Cc2ccccc2)CC(=O)N2CCC[C@H]2C(=O)N(C(C)C)CC(=O)N(CCCN)CC1=O [Compound 27, C(NipNapNibNpmPro)2] (cyclo([Nleu][Nphe]P[N(iPr)Gly][Gly(N(CH2)3NH2)][Nleu][Nphe]P[N(iPr)Gly][Gly(N(CH2)3NH2)])) | – | – | – | – | – | – | – | >500 µg/mL | >500 µg/mL | >500 µg/mL | >250 µg/mL | >250 µg/mL |
| CC(C)CN1CC(=O)N(CCCCNC(=N)N)CC(=O)N(C(C)C)CC(=O)N2CCC[C@H]2C(=O)N(CC(c2ccccc2)c2ccccc2)CC(=O)N(CC(C)C)CC(=O)N(CCCCNC(=N)N)CC(=O)N(C(C)C)CC(=O)N2CCC[C@H]2C(=O)N(CC(c2ccccc2)c2ccccc2)CC1=O [Compound 28, C(NdpNibNgbNipPro)2] (cyclo([Nleu][NhArg][N(iPr)Gly]P[X1][Nleu][NhArg][N(iPr)Gly]P[X1])) | 62.5 µg/mL (≈ 43.6 µM) | 31.3 µg/mL (≈ 21.8 µM) | 62.5 µg/mL (≈ 43.6 µM) | >250 µg/mL | >250 µg/mL | – | – | – | – | – | – | – |
| NCCCCN1CC(=O)N(Cc2ccccc2)CC(=O)N(CCCCN)CC(=O)N(Cc2ccccc2)CC(=O)N(CCCCN)CC(=O)N(Cc2ccccc2)CC1=O [Compound 30, C(NabNpm)3] (cyclo([Nlys][Nphe][Nlys][Nphe][Nlys][Nphe])) | 250 µg/mL (≈ 303 µM) | 250 µg/mL (≈ 303 µM) | 500 µg/mL (≈ 605 µM) | >250 µg/mL | >250 µg/mL | – | – | – | – | – | – | – |
| N=C(N)NCCCCN1CC(=O)N(CC(c2ccccc2)c2ccccc2)CC(=O)N(CCCCNC(=N)N)CC(=O)N(CC(c2ccccc2)c2ccccc2)CC(=O)N(CCCCNC(=N)N)CC(=O)N(CC(c2ccccc2)c2ccccc2)CC(=O)N(CCCCNC(=N)N)CC(=O)N(CC(c2ccccc2)c2ccccc2)CC(=O)N(CCCCNC(=N)N)CC(=O)N(CC(c2ccccc2)c2ccccc2)CC1=O [Compound 31, C(NgbNdp)5] | 250 µg/mL (≈ 123 µM) | 250 µg/mL (≈ 123 µM) | 250 µg/mL (≈ 123 µM) | >62.5 µg/mL | >250 µg/mL | – | – | – | – | – | – | – |
| N=C(N)NCCCCN1CC(=O)N(CC(c2ccccc2)c2ccccc2)CC(=O)N(CC(c2ccccc2)c2ccccc2)CC(=O)N(CC(c2ccccc2)c2ccccc2)CC(=O)N(CCCCNC(=N)N)CC(=O)N(CC(c2ccccc2)c2ccccc2)CC1=O [Compound 32, C(NdpNgb)2Ndp2] | >500 µg/mL | >500 µg/mL | >500 µg/mL | >250 µg/mL | >250 µg/mL | – | – | – | – | – | – | – |
